Experimental data as given in ChEMBL document CHEMBL1201862, “PubChem BioAssay data set” (2004).
Calls of active or inactive are those of the source.

Legend:
[1] = HepG2 cell cytotoxicity, dose response, cytotoxicity control, cherry-picked samples (AID 1159577); assay type: functional, cell-based
[2] = P. falciparum Dd2 growth inhibitors, dose response, SYBR Green, cherry-picked samples (AID 1159567); assay type: functional, cell-based
Estrogen receptor beta = Estrogen receptor beta (Homo sapiens, UniProt Q92731);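 further: recombinant ER-beta bound to coactivator SRC1 peptide in presence of estradiol agonist; inhibitors block coactivator peptide binding and lower the FRET signal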
Sequence of Estrogen receptor beta (Q92731 whole entry): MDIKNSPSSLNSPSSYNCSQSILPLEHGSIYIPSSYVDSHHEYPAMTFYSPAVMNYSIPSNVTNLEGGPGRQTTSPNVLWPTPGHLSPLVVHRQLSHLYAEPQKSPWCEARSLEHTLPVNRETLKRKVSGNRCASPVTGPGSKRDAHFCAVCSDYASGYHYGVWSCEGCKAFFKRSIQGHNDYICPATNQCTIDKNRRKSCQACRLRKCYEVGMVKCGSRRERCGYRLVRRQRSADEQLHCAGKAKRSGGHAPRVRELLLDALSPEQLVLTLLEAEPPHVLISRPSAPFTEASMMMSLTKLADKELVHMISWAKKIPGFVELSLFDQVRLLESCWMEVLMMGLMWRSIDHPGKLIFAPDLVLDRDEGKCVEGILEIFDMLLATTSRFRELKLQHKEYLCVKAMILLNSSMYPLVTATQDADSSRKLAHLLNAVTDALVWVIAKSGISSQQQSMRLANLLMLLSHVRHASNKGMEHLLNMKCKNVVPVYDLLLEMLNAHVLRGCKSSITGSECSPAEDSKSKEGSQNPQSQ

[3] = human group III sPLA2 inhibitors, dose response, biochemical, QFRET, IC50 (AID 743457);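 further: green fluorescence rise as the enzyme cleaves BODIPY PC-A2 in liposomes; potency for inhibition of the enzyme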
[4] = cytotoxicity in HEK-293T cells, dose response, cytotoxicity control for TCR NF-kB inhibitor project, luminescence, T-cell screen hits (AID 489026); assay type: functional, cell-based;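 further: cells exposed to compound about 14 hours before the viability readout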
[5] = biological target: T1, COUP transcription factor 2 (Homo sapiens, UniProt P24468); assay: Luminescence-based cell-based high throughput dose response assay to identify inhibitors of COUP-TFII (NR2F2).; assay type: functional;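 further: HEK293 cells transiently cotransfected with COUP-TFII expression vector and reporter; luciferase reporter luminescence driven by COUP-TFII from the pX2-168 reporter plasmid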
T1 sequence (P24468 whole entry): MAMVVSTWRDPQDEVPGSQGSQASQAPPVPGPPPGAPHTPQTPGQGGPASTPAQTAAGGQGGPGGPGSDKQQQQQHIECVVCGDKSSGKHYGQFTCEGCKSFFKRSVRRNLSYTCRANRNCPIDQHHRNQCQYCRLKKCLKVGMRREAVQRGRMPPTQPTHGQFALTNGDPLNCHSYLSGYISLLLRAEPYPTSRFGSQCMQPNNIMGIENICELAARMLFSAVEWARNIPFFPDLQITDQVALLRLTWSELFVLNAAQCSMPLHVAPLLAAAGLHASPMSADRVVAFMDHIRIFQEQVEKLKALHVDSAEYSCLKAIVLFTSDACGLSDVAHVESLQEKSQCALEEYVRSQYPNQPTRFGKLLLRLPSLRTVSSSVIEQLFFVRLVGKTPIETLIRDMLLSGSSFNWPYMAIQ

[6] = system: Streptococcus sp. 'group A'; assay: growth inhibition of control SK(-) GAS strain, dose response, counter-screen for streptokinase expression inhibitor project, luminescence, kanamycin, BacTiterGlo, confirmation (AID 1900); assay type: functional, organism-based
Streptococcus = assay: Group A Streptococcus viability loss, dose response, counter-screen for streptokinase expression inhibitor project, luminescence, BacTiterGlo (AID 1915); assay type: functional, organism-based;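 further: potency for reduction of bacterial viability or growth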
[7] = biological target: T2, Heat shock factor protein 1 (Mus musculus, UniProt P38532); assay: inhibition of MG132-induced HSE-luciferase signal, confirmation, cell-based, NIH3T3, luminescence, dose retest (AID 2382); assay type: functional;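 further: NIH3T3 fibroblasts with HSF1-driven luciferase reporter stressed by proteasome inhibitor MG132; luminescence from HSF1-driven luciferase expression after 8 hours of MG132 stress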
T2 sequence (P38532 whole entry): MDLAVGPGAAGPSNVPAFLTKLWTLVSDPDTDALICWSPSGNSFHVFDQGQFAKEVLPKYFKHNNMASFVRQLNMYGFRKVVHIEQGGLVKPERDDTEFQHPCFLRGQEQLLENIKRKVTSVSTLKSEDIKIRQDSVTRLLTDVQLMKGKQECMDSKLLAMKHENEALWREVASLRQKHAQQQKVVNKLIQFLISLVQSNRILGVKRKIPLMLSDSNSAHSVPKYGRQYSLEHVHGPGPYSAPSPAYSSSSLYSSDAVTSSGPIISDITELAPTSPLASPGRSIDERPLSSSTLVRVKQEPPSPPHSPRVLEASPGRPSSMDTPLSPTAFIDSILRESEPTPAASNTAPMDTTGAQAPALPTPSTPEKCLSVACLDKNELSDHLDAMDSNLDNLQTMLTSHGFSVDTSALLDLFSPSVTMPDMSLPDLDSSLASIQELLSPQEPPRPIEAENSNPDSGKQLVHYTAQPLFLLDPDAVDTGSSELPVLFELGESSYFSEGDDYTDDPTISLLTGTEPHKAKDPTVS

[8] = biological target: T3, Trace amine-associated receptor 1 (Homo sapiens, UniProt Q96RJ0); assay: Fluorescence-based cell-based high throughput dose response assay to identify agonists of the human trace amine associated receptor 1 (TAAR1).; assay type: functional
T3 sequence (Q96RJ0 whole entry): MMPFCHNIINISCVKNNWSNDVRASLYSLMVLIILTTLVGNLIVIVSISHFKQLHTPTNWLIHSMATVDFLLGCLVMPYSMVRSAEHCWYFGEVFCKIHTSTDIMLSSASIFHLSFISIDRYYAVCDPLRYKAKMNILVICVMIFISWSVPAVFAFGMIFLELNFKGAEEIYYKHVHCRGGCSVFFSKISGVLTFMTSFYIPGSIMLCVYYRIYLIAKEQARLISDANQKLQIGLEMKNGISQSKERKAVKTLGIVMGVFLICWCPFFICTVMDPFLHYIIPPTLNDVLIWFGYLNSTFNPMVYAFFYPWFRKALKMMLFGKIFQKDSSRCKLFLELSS

[9] = biological target: T3, Trace amine-associated receptor 1; assay: Counterscreen for agonists of the human trace amine associated receptor 1 (hTAAR1): Fluorescence-based cell-based high throughput dose response assay to identify hTAAR1 agonist that also desensitize TAAR1 receptor response.; assay type: functional
cells [10] = assay type: functional, cell-based
cells [11] = assay type: functional, cell-based; remark: listed apart in the source
[12] = HepG2 cell cytotoxicity, dose response, cytotoxicity control, ATP luminescence, cherry-pick, activator set 2 (AID 1053143); assay type: functional, cell-based
[13] = ZM109 Env clade C HIV-1 fusion inhibitors, dose response, HeLa effector, CEM target cells, luciferase, cherry-pick (AID 652058); assay type: functional, cell-based
[14] = off-target signal loss in HeLa-CEM21 co-culture – HeLa F-luc CTL cells, cherry-picked, counter-screen for HIV-1 Env fusion inhibitor project, dose response (AID 652040); assay type: functional, cell-based;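 further: potency for signal decrease marking cytotoxic or nonspecific inhibition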
[15] = inhibitors of HIV Env-driven cell fusion, dose response, cherry-pick (AID 652057); assay type: functional, cell-based
[16] = inhibitors of clade B AD8 Env fusion, dose response, cell-based, cherry-pick (AID 652062); assay type: functional;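 further: luciferase signal from cell-cell fusion driven by HIV-1 clade B AD8 Env; potency is for inhibitors of fusion seen as a drop in luminescence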
cells [17] = assay type: functional, cell-based; remark: listed apart in the source
[18] = biological target: T4, Nuclear receptor subfamily 0 group B member 1 (Homo sapiens, UniProt P51843); assay type: functional, cell-based;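 further: HEK293T cells transfected with SF-1 and DAX-1 plus StAR promoter luciferase reporter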
T4 sequence (P51843 whole entry): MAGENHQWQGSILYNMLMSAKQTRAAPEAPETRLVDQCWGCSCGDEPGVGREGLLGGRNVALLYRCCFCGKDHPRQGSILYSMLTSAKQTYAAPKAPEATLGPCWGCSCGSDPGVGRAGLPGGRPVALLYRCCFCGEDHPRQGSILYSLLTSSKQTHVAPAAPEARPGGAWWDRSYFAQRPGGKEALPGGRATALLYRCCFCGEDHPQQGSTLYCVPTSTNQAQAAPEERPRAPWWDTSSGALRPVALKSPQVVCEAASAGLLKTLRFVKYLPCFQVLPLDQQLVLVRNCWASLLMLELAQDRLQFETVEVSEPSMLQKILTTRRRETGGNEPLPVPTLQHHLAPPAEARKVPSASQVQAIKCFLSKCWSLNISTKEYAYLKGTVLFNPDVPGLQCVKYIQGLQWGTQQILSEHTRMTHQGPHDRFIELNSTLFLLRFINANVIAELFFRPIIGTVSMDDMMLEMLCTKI

[19] = biological target: T5, Fructose-bisphosphate aldolase (Mycobacterium tuberculosis, UniProt P9WQA3); assay: Fluorescence-based biochemical high throughput dose response assay for inhibitors of the fructose-bisphosphate aldolase (FBA) of M. tuberculosis.; assay type: functional
T5 sequence (P9WQA3 whole entry): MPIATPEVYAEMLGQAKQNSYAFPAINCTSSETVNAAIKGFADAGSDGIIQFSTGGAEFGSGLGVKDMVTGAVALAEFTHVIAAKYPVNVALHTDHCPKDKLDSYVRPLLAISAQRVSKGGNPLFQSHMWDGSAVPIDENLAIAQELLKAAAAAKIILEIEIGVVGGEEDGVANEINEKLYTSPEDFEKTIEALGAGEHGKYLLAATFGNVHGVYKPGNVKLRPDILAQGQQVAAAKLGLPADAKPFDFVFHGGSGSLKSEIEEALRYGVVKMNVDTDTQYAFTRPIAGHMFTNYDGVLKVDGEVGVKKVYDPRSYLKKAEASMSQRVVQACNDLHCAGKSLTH

[20] = biological target: Protein-tyrosine kinase 2-beta (Homo sapiens, UniProt Q14289);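 further: potency of inhibitors of PYK2 kinase phosphorylation of poly-GT substrate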
Sequence of Protein-tyrosine kinase 2-beta (Q14289 whole entry): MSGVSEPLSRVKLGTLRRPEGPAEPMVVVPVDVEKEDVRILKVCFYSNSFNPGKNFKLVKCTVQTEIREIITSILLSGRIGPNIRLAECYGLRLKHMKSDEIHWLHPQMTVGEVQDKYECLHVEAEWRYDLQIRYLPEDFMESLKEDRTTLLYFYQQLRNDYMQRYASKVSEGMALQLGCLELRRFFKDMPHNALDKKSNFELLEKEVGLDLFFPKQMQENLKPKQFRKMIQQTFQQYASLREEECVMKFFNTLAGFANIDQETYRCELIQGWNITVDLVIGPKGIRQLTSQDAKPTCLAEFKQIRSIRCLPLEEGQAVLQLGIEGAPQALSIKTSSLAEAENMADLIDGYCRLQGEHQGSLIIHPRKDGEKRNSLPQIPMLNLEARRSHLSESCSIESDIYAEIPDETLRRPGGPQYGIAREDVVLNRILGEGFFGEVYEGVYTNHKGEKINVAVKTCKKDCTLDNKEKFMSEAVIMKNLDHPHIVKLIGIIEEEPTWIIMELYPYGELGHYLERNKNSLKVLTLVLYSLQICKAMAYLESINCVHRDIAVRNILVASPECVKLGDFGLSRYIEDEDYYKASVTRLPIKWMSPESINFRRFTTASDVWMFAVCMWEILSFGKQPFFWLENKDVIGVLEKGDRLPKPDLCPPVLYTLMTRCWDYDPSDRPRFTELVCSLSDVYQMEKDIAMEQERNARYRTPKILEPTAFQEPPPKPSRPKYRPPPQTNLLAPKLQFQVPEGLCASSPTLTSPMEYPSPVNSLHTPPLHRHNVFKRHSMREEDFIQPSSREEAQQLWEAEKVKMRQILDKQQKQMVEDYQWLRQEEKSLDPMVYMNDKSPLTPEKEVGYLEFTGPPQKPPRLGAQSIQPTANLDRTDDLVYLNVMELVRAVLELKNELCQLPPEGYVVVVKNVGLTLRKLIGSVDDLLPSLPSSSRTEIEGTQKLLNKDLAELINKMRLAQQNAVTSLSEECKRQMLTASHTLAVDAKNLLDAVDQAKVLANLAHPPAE

N#C[C@@H]1[C@H](c2ccc(C#CCC3CCCC3)cc2)[C@H](CO)N1C(=O)c1ccccn1
AC50 [1]: 26 µM (active)
AC50 [2]: 3.37 µM (active)

CCOC(=O)c1cccc(NC(=O)c2cccs2)c1
IC50 (Estrogen receptor beta): > 50 µM (not active)

CC1=CC(C)(C)N=C(S)N1c1cccc2ccccc12
IC50 [3]: > 122 µM (inactive)

Cc1cc(-n2c(C)cc(C(=O)CSc3ncnc4ccccc34)c2C)no1
IC50 [4]: > 80 µM (inactive)
IC50 [5]: 6.08 µM (active)

COc1ccc(C(=O)NC(=S)NNC(=O)c2ccco2)cc1
EC50 [6]: 6.65 µM (active)
EC50 (Streptococcus): 17.3 µM (active)
IC50 [3]: > 122 µM (inactive)
EC50 [7]: > 195 µM (not active)

O=C(CCN1CCCC1Cc1ccccc1)c1ccc2c(c1)OCCO2 (stereo not drawn)
EC50 [8]: 0.3 µM (active)
IC50 [9]: > 9.97 µM (active)
IC50 (cells [10]): > 29.9 µM (inactive)
EC50 (cells [11]): > 29.9 µM (inactive)

C(=C\c1ccco1)/c1nc2ccccc2[nH]1
AC50 [12]: 26 µM (active)

CC[C@@]12C(=O)N(c3cccc(Br)c3)C(=O)N1[C@H](c1ccc(OC)cc1)[C@@H]1C(=O)N(C(C)(C)C)C(=O)[C@@H]12
AC50 [13]: 581 nM (active)
AC50 [14]: 509 nM (active)
AC50 [15]: 326 nM (active)
AC50 [16]: 627 nM (active)

Cc1cc(C)n2nc(C(=O)Nc3ccc4c(c3)OCCO4)nc2n1
IC50 (cells [17]): > 67.5 µM (inactive)
IC50 [18]: > 67.5 µM (inactive)

CCCNC(=O)N1CC2(CCN(S(=O)(=O)c3ccc(OC)cc3)CC2)c2c(n(C)c3cc(OC)ccc23)[C@@H]1CO
AC50 [1]: > 39 µM (inactive)
AC50 [2]: 3.11 µM (active)

c1ccc(CN(CC2=NCCN2)c2ccccc2)cc1 [ANTAZOLINE PHOSPHATE]
EC50 [8]: > 9.97 µM (active)
IC50 [9]: > 29.9 µM (inactive)
IC50 (cells [10]): > 29.9 µM (inactive)
EC50 (cells [11]): > 29.9 µM (inactive)

CCOc1ccc2oc(C(=O)OCC(=O)NC3CCCC3)c(C)c2c1
IC50 [19]: 2.59 µM (active)

CCc1ccc2nc(SCC(=O)N(CC)CC)c(C#N)cc2c1
IC50 [20]: > 69.5 µM (not active)

COc1cccc(C(=O)N[C@H](C(=O)N2CCC[C@H]2C(=O)NCCc2ccccc2Cl)c2ccccc2)c1
EC50 [8]: 6.46 µM (active)
IC50 [9]: 7.36 µM (active)
IC50 (cells [10]): > 29.9 µM (inactive)
EC50 (cells [11]): > 29.9 µM (inactive)
